The values that follow come from ChEMBL document CHEMBL5726766, “Sulfonamide compounds as voltage-gated sodium channel modulators” (2019).

pIC50: −log10 of the molar value.

Test [1] can be described thus: (§1) Membrane potential dye assay: HEK-293 cells overexpressing the channel of interest were seeded in a 96-well plate at a density of 30000 cells/well and incubated at 37° C./5% CO2 for 48 hr. The assay was carried out using the Red Membrane Potential Dye (Molecular Devices) following the manufacturer's instructions. Briefly, the cells were incubated with 1× red membrane potential dye for 1.5 hour. The cells were then treated with various concentrations of the test compounds for 15-20 min followed by depolarization with 10-30 μM Veratridine. The fluorescence was read following excitation at 510-545 nm and emission at 565-625 nm in FLIPR. The “max-min” fluorescence values were used to calculate the % inhibition. The following applies: HEK293.

The nature of test [2]: as §1. The following applies: HEK293. This is another data set of the same source.

What is called pIC50 is −log10 of the IC50, conventionally taken in molar units.

On to `O=S1(=O)CCN(c2cc(C(F)(F)F)ccc2[C@H]2CCOc3cc(S(=O)(=O)Nc4ncccn4)ccc32)CC1`, for which the negative logarithm of the IC50 (pIC50) in test [1] was less than 5.00. Same read-out and setting: as for `O=C(O)c1ccc(-c2cc(C(F)(F)F)ccc2[C@H]2CCOc3cc(S(=O)(=O)Nc4ncc(F)cn4)ccc32)cc1`, the figure is less than 5.00; as for `CCCc1cc(C(F)(F)F)ccc1[C@@H]1CCOc2cc(S(=O)(=O)Nc3ncc(F)cn3)ccc21`, less than 5.00. `O=C1CCCN1c1cc(C(F)(F)F)ccc1[C@@H]1CCOc2cc(S(=O)(=O)Nc3ncc(F)cn3)ccc21`: in test [1], the pIC50 is less than 5.00. The same measure, in the same setting: for `O=S(=O)(Nc1ncccn1)c1ccc2c(c1)OCC[C@H]2c1ccc(C(F)(F)F)cc1N1CCOCC1` the value was less than 5.00.

On to `O=S(=O)(Nc1ncccn1)c1ccc2c(c1)OCC[C@H]2c1ccc(C(F)(F)F)cc1O[C@H]1CCOC1`, for which the results for the pIC50 in test [1] and in test [2] were less than 5.00 and 6.83, respectively. Consider `O=S(=O)(Nc1cccc(F)n1)c1ccc2c(c1)OCC[C@@H]2c1ccc(C(F)(F)F)cc1O[C@H]1CCOC1`, for which the negative-log IC50 (pIC50) in test [2] was 9.05. For the compound `O=S(=O)(Nc1ncccn1)c1ccc2c(c1)OCC[C@@H]2c1ccc(C(F)(F)F)cc1O[C@@H]1CCOC1`, the pIC50 in test [1] is less than 5.00; in test [2] it was 5.99. The corresponding values for `O=S(=O)(Nc1cccc(F)n1)c1ccc2c(c1)OCC[C@H]2c1ccc(C(F)(F)F)cc1O[C@H]1CCOC1` are less than 5.00 and 6.08. Consider `O=C1COCCN1c1cc(C(F)(F)F)ccc1[C@H]1CCOc2cc(S(=O)(=O)Nc3ncccn3)ccc21`, for which the pIC50 in test [1] is less than 5.00. On the same count and under the same terms, for `O=S(=O)(Nc1cccc(F)n1)c1ccc2c(c1)OCC[C@H]2c1ccc(C(F)(F)F)cc1OC1CCOCC1` the value was 5.44. On the same count and under the same terms, for `COc1cc(C(F)(F)F)ccc1[C@@H]1CCOc2cc(S(=O)(=O)Nc3cccc(F)n3)ccc21` the value was less than 5.00. For `O=S(=O)(Nc1ncc(F)cn1)c1ccc2c(c1)OCC[C@@H]2c1ccc(C(F)(F)F)cc1-c1nccs1`, the figures for the pIC50 in test [1] and in test [2] were less than 5.00 and 7.96, respectively. For `CCCc1cc(C(F)(F)F)ccc1[C@H]1CCOc2cc(S(=O)(=O)Nc3ncc(F)cn3)ccc21`, in test [1], the pIC50 was less than 5.00. Consider `O=S1(=O)CCN(c2cc(C(F)(F)F)ccc2[C@@H]2CCOc3cc(S(=O)(=O)Nc4ncccn4)ccc32)CC1`, for which the pIC50 in test [1] is less than 5.00. Consider `Cc1nc(-c2cc(C(F)(F)F)ccc2[C@@H]2CCOc3cc(S(=O)(=O)Nc4ncc(F)cn4)ccc32)cs1`, for which the pIC50 in test [1] was less than 5.00; in test [2] it was 7.80.

For the compound `O=S(=O)(Nc1ncccn1)c1ccc2c(c1)OCC[C@H]2c1ccc(C(F)(F)F)cc1OC1CCOCC1`, in test [1], the pIC50 was less than 5.00. Still for that read-out and setting: as for `O=S(=O)(Nc1ncccn1)c1ccc2c(c1)OCC[C@H]2c1ccc(C(F)(F)F)cc1-c1ccc(F)cn1`, the figure is less than 5.00. `O=S(=O)(Nc1ncccn1)c1ccc2c(c1)OCC[C@@H]2c1ccc(C(F)(F)F)cc1O[C@H]1CCOC1`: the pIC50 in test [2] was 7.42. Consider `O=S(=O)(Nc1ncccn1)c1ccc2c(c1)OCC[C@H]2c1ccc(C(F)(F)F)cc1C1CCOCC1`, for which the pIC50 in test [1] was less than 5.00. Consider `O=S(=O)(Nc1ncccn1)c1ccc2c(c1)OCC[C@H]2c1ccc(C(F)(F)F)cc1O[C@@H]1CCOC1`, for which the pIC50 in test [2] was 7.08. For the compound `COCCCc1cc(C(F)(F)F)ccc1[C@@H]1CCOc2cc(S(=O)(=O)Nc3ncccn3)ccc21`, the pIC50 in test [1] is less than 5.00. Same read-out and setting: as for `O=S(=O)(Nc1cccnn1)c1ccc2c(c1)OCC[C@H]2c1ccc(C(F)(F)F)cc1OC1CCOCC1`, the figure is less than 5.00.

`COCCCOc1cc(C(F)(F)F)ccc1[C@@H]1CCOc2cc(S(=O)(=O)Nc3ncccn3)ccc21`: in test [1], the pIC50 was less than 5.00. Same read-out and setting: for `COCCCCc1cc(C(F)(F)F)ccc1[C@@H]1CCOc2cc(S(=O)(=O)Nc3ncccn3)ccc21` the value was less than 5.00; for `CCCc1cc(C(F)(F)F)ccc1[C@@H]1CCOc2cc(S(=O)(=O)Nc3ncccn3)ccc21`, less than 5.00. Still for that read-out and setting: as for `O=C1COCCN1c1cc(C(F)(F)F)ccc1[C@@H]1CCOc2cc(S(=O)(=O)Nc3ncccn3)ccc21`, the figure is less than 5.00; as for `O=S(=O)(Nc1ccncn1)c1ccc2c(c1)OCC[C@H]2c1ccc(C(F)(F)F)cc1OC1CCOCC1`, less than 5.00. The same measure, in the same setting: for `O=C(O)c1ccc(-c2cc(C(F)(F)F)ccc2[C@@H]2CCOc3cc(S(=O)(=O)Nc4ncc(F)cn4)ccc32)cc1` the value was less than 5.00; for `O=S(=O)(Nc1cccnn1)c1ccc2c(c1)OCC[C@@H]2c1ccc(C(F)(F)F)cc1-c1ccc(F)cn1`, less than 5.00.

As for `Cc1nc(-c2cc(C(F)(F)F)ccc2[C@H]2CCOc3cc(S(=O)(=O)Nc4ncc(F)cn4)ccc32)cs1`, the pIC50 in test [1] was less than 5.00; in test [2] it was 8.10. Consider `O=S(=O)(Nc1cccnn1)c1ccc2c(c1)OCC[C@H]2c1ccc(C(F)(F)F)cc1-c1ccc(F)cn1`, for which, in test [1], the pIC50 was less than 5.00.

As to `O=S(=O)(Nc1ncccn1)c1ccc2c(c1)OCC[C@H]2c1ccc(C(F)(F)F)cc1OCCCF`, the pIC50 in test [1] and in test [2] was less than 5.00 in each case. On to `COc1cc(C(F)(F)F)ccc1[C@H]1CCOc2cc(S(=O)(=O)Nc3ncccn3)ccc21`, for which the pIC50 in test [1] is less than 5.00.

For the compound `O=C1CCCN1c1cc(C(F)(F)F)ccc1[C@H]1CCOc2cc(S(=O)(=O)Nc3ncc(F)cn3)ccc21`, in test [1], the pIC50 was less than 5.00. For `O=S(=O)(Nc1ncccn1)c1ccc2c(c1)OCC[C@H]2c1ccc(C(F)(F)F)cc1OC1COC1`, the pIC50 in test [1] was less than 5.00. On the same count and under the same terms, for `O=C(O)c1ccc(-c2cc(C(F)(F)F)ccc2[C@H]2CCOc3cc(S(=O)(=O)Nc4ncccn4)ccc32)cc1` the value was less than 5.00; for `O=S(=O)(Nc1ncc(F)cn1)c1ccc2c(c1)OCC[C@H]2c1ccc(C(F)(F)F)cc1OC1CCOCC1`, less than 5.00. For `O=S(=O)(Nc1ncc(F)cn1)c1ccc2c(c1)OCC[C@H]2c1ccc(C(F)(F)F)cc1-c1nccs1`, the values for the pIC50 in test [1] and in test [2] were less than 5.00 and 5.95, respectively.

As to `O=S1(=O)CCN(c2cc(C(F)(F)F)ccc2[C@H]2CCOc3cc(S(=O)(=O)Nc4ccncn4)ccc32)CC1` (racemic), the pIC50 in test [1] is less than 5.00. On the same count and under the same terms, for `O=S1(=O)CCN(c2cc(C(F)(F)F)ccc2[C@H]2CCOc3cc(S(=O)(=O)Nc4cccc(F)n4)ccc32)CC1` (racemic) the value was less than 5.00; for `O=S1(=O)CCN(c2cc(C(F)(F)F)ccc2[C@H]2CCOc3cc(S(=O)(=O)Nc4ncc(F)cn4)ccc32)CC1` (racemic), less than 5.00; for `O=S1(=O)CCN(c2cc(C(F)(F)F)ccc2[C@H]2CCOc3cc(S(=O)(=O)Nc4cccnn4)ccc32)CC1` (racemic), less than 5.00.

Take `O=S(=O)(Nc1ccncn1)c1ccc2c(c1)OCC[C@@H]2c1ccc(C(F)(F)F)cc1Cl` (racemic): the pIC50 in test [1] was less than 5.00.

For `COCCc1cc(C(F)(F)F)ccc1[C@H]1CCOc2cc(S(=O)(=O)Nc3ccncn3)ccc21` (racemic), the pIC50 in test [1] is less than 5.00.

Regarding `COCCc1cc(C(F)(F)F)ccc1[C@H]1CCOc2cc(S(=O)(=O)Nc3cccnn3)ccc21` (racemic), the pIC50 in test [1] was less than 5.00.

As to `COCCOc1cc(C(F)(F)F)ccc1[C@H]1CCOc2cc(S(=O)(=O)Nc3ncc(F)cn3)ccc21` (racemic), the negative-log IC50 (pIC50) in test [1] is less than 5.00. The same measure, in the same setting: for `O=C(O)c1ccc(-c2cc(C(F)(F)F)ccc2[C@H]2CCOc3cc(S(=O)(=O)Nc4cccc(F)n4)ccc32)cc1` (racemic) the value was less than 5.00.

With `COCCc1cc(C(F)(F)F)ccc1[C@H]1CCOc2cc(S(=O)(=O)Nc3ncccn3)ccc21` (racemic), in test [1], the pIC50 was less than 5.00. `O=S(=O)(Nc1ncc(F)cn1)c1ccc2c(c1)OCC[C@@H]2c1ccc(C(F)(F)F)cc1CCF` (racemic): the pIC50 in test [1] was less than 5.00. The same measure, in the same setting: for `O=C1OCCN1c1cc(C(F)(F)F)ccc1[C@H]1CCOc2cc(S(=O)(=O)Nc3ncc(F)cn3)ccc21` (racemic) the value was less than 5.00; for `O=C1CCCN1c1cc(C(F)(F)F)ccc1[C@H]1CCOc2cc(S(=O)(=O)Nc3cccnn3)ccc21` (racemic), less than 5.00; for `O=C(O)c1ccc(-c2cc(C(F)(F)F)ccc2[C@H]2CCOc3cc(S(=O)(=O)Nc4cccnn4)ccc32)cc1` (racemic), less than 5.00.

`COCCCOc1cc(C(F)(F)F)ccc1[C@H]1CCOc2cc(S(=O)(=O)Nc3ncc(F)cn3)ccc21` (racemic): the pIC50 in test [1] was less than 5.00. Same read-out and setting: for `COCCCCc1cc(C(F)(F)F)ccc1[C@H]1CCOc2cc(S(=O)(=O)Nc3ncc(F)cn3)ccc21` (racemic) the value was less than 5.00; for `O=S(=O)(Nc1ncc(F)cn1)c1ccc2c(c1)OCC[C@@H]2c1ccc(C(F)(F)F)cc1CCC(F)F` (racemic), less than 5.00; for `O=S(=O)(Nc1ncccn1)c1ccc2c(c1)OCC[C@@H]2c1ccc(C(F)(F)F)cc1Cl` (racemic), less than 5.00. Still for that read-out and setting: as for `O=C1OCCN1c1cc(C(F)(F)F)ccc1[C@H]1CCOc2cc(S(=O)(=O)Nc3ncccn3)ccc21` (racemic), the figure is less than 5.00; as for `O=C1CCCN1c1cc(C(F)(F)F)ccc1[C@H]1CCOc2cc(S(=O)(=O)Nc3ncccn3)ccc21` (racemic), less than 5.00. Regarding `O=S(=O)(Nc1ncc(F)cn1)c1ccc2c(c1)OCC[C@@H]2c1ccc(C(F)(F)F)cc1OC1COC1` (racemic), the pIC50 in test [1] is less than 5.00.

As for `O=S(=O)(Nc1ccncn1)c1ccc2c(c1)OCC[C@@H]2c1ccc(C(F)(F)F)cc1CCF` (racemic), in test [1], the pIC50 was less than 5.00. Consider `O=C1OCCN1c1cc(C(F)(F)F)ccc1[C@H]1CCOc2cc(S(=O)(=O)Nc3cccc(F)n3)ccc21` (racemic), for which the pIC50 in test [1] is less than 5.00. On the same count and under the same terms, for `O=C1CCCN1c1cc(C(F)(F)F)ccc1[C@H]1CCOc2cc(S(=O)(=O)Nc3ccncn3)ccc21` (racemic) the value was less than 5.00. With `O=S(=O)(Nc1ncc(F)cn1)c1ccc2c(c1)OCC[C@@H]2c1ccc(C(F)(F)F)cc1Cl` (racemic), the pIC50 in test [1] was less than 5.00. Still for that read-out and setting: for `COCCCc1cc(C(F)(F)F)ccc1[C@H]1CCOc2cc(S(=O)(=O)Nc3ncc(F)cn3)ccc21` (racemic) the value was less than 5.00. On the same count and under the same terms, for `O=S(=O)(Nc1cccc(F)n1)c1ccc2c(c1)OCC[C@@H]2c1ccc(C(F)(F)F)cc1CCF` (racemic) the value was less than 5.00; for `O=S(=O)(Nc1cccnn1)c1ccc2c(c1)OCC[C@@H]2c1ccc(C(F)(F)F)cc1Cl` (racemic), less than 5.00.
